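Test compounds were applied to cells in 96-well plates for 48 hours at 5 doses. GI50: concentration for 50% inhibition of growth.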 Active and inactive are the calls of the source. Cut-off read from the data, not from the text of the source: active = GI50 up to about 1.1 µM and inactive = higher. Where only a bound is given, the exact number is not on record here.

Holding throughout (assay): NCI-60 cell line screen, 48 h
Test [1] relates to SN12C.
Test [2] has as its system SR.
For test [3], the system named is MDA-N.
Test [4] has as its system HOP-92.
Test [5] deals with MOLT-4.
Test [6] relates to SK-MEL-28.
Test [7] has as its system CCRF-CEM.
Test [8] deals with SF-295.
Test [9] deals with HL-60.
Test [10] relates to HCT-15.
Test [11] deals with RPMI-8226.
Test [12] has as its system MCF7.
Test [13] concerns HOP-62.
Test [14] relates to SW-620.
The subject of test [15] is UACC-257.
Test [16] has as its system EKVX.
The test system of test [17] is HT-29.
Test [18] relates to OVCAR-8.
Test [19] deals with NCI-H522.
Test [20] has as its system OVCAR-3.

As to `O=C1NC(S(=O)(=O)O)=NNC12c1ccccc1-c1ccccc12`, the GI50 in test [1], in test [2], in [3], in test [4], in [5] and in test [6] was > 10 µM (inactive) in each case. Further, the GI50 in test [7] is > 10 µM (inactive); in test [8] it was > 10 µM (inactive); in test [9], > 10 µM (inactive); in test [10], over 10 µM; in test [11] it was > 10 µM (inactive); in test [12], > 10 µM (inactive). In addition, the GI50 in [13], in test [14], in test [15], in [16], in [17] and in test [18] was > 10 µM (inactive) in each case. In addition, the GI50 in test [19] was > 10 µM (inactive).
For the compound `O=c1c(-c2ccccc2)c(SCCO)n(-c2ccccc2)c(=S)n1-c1ccccc1`, the GI50 in test [1], in test [2], in test [3], in test [5], in [6] and in test [7] was > 100 µM (inactive) each time. Also, the GI50 in test [8] was > 100 µM (inactive); in test [9], > 100 µM (inactive); in test [10] it was over 100 µM; in test [11] it was > 100 µM (inactive); in test [12], > 100 µM (inactive); in test [20] it was > 100 µM (inactive). The GI50 in test [13], in [14], in test [15], in test [16], in test [17] and in test [18] was > 100 µM (inactive) in each case. Besides, in test [19], the GI50 was > 100 µM (inactive).
Regarding `N#CC1CCN2N=C(c3ccccc3)SC12c1ccccc1` (stereo not drawn), the GI50 in [1] is 40.4 µM (inactive); in test [2], 37.1 µM (inactive); in test [3], 54.7 µM (inactive); in test [4] it was 58.1 µM (inactive); in test [5] it was 17.5 µM (inactive); in test [6], > 100 µM (inactive). For the same compound, the GI50 in [8] is 60.5 µM (inactive); in test [9] it was 32.9 µM (inactive); in [10] it was 38.5 µM; in [11], 26.3 µM (inactive); in test [12], 31.1 µM (inactive); in test [13], > 100 µM (inactive). The GI50 in [14] is 39.4 µM (inactive); in test [15], 39.3 µM (inactive); in test [16], 18.8 µM (inactive); in test [17], 32.1 µM (inactive); in test [18], 76.6 µM (inactive); in [19], 46.2 µM (inactive).
In the case of `CCOC(=O)c1c(N=P(c2ccccc2)(c2ccccc2)c2ccccc2)nnc(-c2ccccc2)c1-c1ccccc1`, the GI50 is > 100 µM (inactive) in test [1]; > 100 µM (inactive) in test [2]; 92.5 µM (inactive) in test [3]; 5.52 µM (inactive) in test [4]; > 100 µM (inactive) in test [5]; > 100 µM (inactive) in test [6]. The GI50 in [7] was > 100 µM (inactive); in test [8], > 100 µM (inactive); in test [9], > 100 µM (inactive); in test [10], over 100 µM; in [12], > 100 µM (inactive); in [20], > 100 µM (inactive). In addition, the GI50 in [13], in [14], in [15], in test [16], in test [17] and in test [18] was > 100 µM (inactive) in each case. Also, the GI50 in test [19] is > 100 µM (inactive).
Regarding `Cc1ccc(S(=O)(=O)Nc2ccccc2C=O)cc1`, the GI50 was 16.1 µM (inactive) in [1]; 18.2 µM (inactive) in [2]; 15.7 µM (inactive) in test [3]; 2.35 µM (inactive) in test [4]; 11.9 µM (inactive) in [5]; 21.3 µM (inactive) in test [6]. For the same compound, the GI50 is 18.9 µM (inactive) in test [8]; 11 µM (inactive) in test [9]; 7.4 µM in [10]; 5.62 µM (inactive) in test [11]; 12.4 µM (inactive) in test [12]; 16.9 µM (inactive) in test [20]. Moreover, the GI50 in test [13] was 21.5 µM (inactive); in test [14], 17 µM (inactive); in test [15], 18 µM (inactive); in test [16], 25 µM (inactive); in test [17], 22.8 µM (inactive); in [18], 14.7 µM (inactive). In [19], the GI50 was 29 µM (inactive).
For the compound `CC(C)(C)c1cc(C2=NNC(c3ccccc3)C2)cc(C(C)(C)C)c1O` (stereo not drawn), the GI50 was 16.6 µM (inactive) in [1]; 5.58 µM (inactive) in test [2]; 12.6 µM (inactive) in test [3]; 14.9 µM (inactive) in test [4]; 16.6 µM (inactive) in [5]; 15.9 µM (inactive) in test [6]. Moreover, the GI50 in test [8] was 16.5 µM (inactive); in test [10] it was 13.8 µM; in [11] it was 15 µM (inactive); in [12], 13.8 µM (inactive); in test [20], 3.88 µM (inactive); in test [13] it was 17.1 µM (inactive). Further, the GI50 in [14] was 15.7 µM (inactive); in test [15] it was 14.3 µM (inactive); in test [16], 16.1 µM (inactive); in test [17], 17.7 µM (inactive); in [18] it was 16.7 µM (inactive); in [19] it was 14.7 µM (inactive).
Consider `N#CC(C#N)/N=N/c1ccc(-c2nc3ccccc3o2)cc1`, for which the GI50 in test [1] is 13.2 µM (inactive); in test [2], 16.2 µM (inactive); in [3] it was 17.2 µM (inactive); in test [4] it was 6.81 µM (inactive); in test [5], 7.82 µM (inactive); in test [6] it was 6.12 µM (inactive). The GI50 was 5.48 µM (inactive) in test [9]; 14.8 µM in [10]; 11.1 µM (inactive) in [12]; 4.19 µM (inactive) in [20]; 16.6 µM (inactive) in [13]; 11.2 µM (inactive) in [14]. Also, the GI50 in [15] was 4.41 µM (inactive); in test [16] it was 11.7 µM (inactive); in test [17], 12.8 µM (inactive); in test [18], 23.6 µM (inactive); in [19] it was 5.02 µM (inactive).
For the compound `N=C(N)n1nc2c(c1O)CCC2`, the GI50 was > 100 µM (inactive) in test [1]; < 0.01 µM (active) in test [2]; > 100 µM (inactive) in [3]; > 100 µM (inactive) in test [4]; > 100 µM (inactive) in test [6]; > 100 µM (inactive) in [7]. For the same compound, the GI50 in test [8] is > 100 µM (inactive); in test [9], > 100 µM (inactive); in test [10] it was over 100 µM; in test [12], > 100 µM (inactive); in test [20] it was > 100 µM (inactive); in test [13], > 100 µM (inactive). The GI50 in test [14], in test [15], in test [17], in test [18] and in test [19] was > 100 µM (inactive) throughout.
`N[C@H]1CCN(c2c(F)cc3c(=O)c(C(=O)O)cn4c3c2Oc2c-4ccc3c2ccc2ccccc23)C1`: the GI50 was 0.774 µM (active) in test [1]; 0.0532 µM (active) in test [2]; 0.767 µM (active) in [3]; 2.46 µM (inactive) in [4]; 0.0643 µM (active) in test [5]; 2.52 µM (inactive) in test [6]. Further, the GI50 is 1.48 µM (inactive) in test [8]; 4.21 µM (inactive) in test [9]; 0.364 µM in test [10]; 0.226 µM (active) in test [11]; 0.817 µM (active) in [12]; 13.1 µM (inactive) in test [20]. Besides, the GI50 was 1.07 µM (active) in [13]; 0.276 µM (active) in test [14]; 0.288 µM (active) in test [15]; 0.377 µM (active) in test [16]; 0.117 µM (active) in test [17]; 0.664 µM (active) in test [18]. In addition, in test [19], the GI50 was 0.498 µM (active).
Take `O=C1NCC(NC(=O)C(F)(F)F)c2c(Br)sc(Br)c21` (stereo not drawn): the GI50 in test [1], in test [2], in test [3], in test [4], in test [5] and in test [6] was > 100 µM (inactive) in each case. In addition, the GI50 in [7] was > 100 µM (inactive); in test [8], > 100 µM (inactive); in test [10], over 100 µM; in test [11] it was > 100 µM (inactive); in test [12] it was > 100 µM (inactive); in [20], > 100 µM (inactive). In addition, the GI50 in [13], in test [14], in test [15], in test [16], in [17] and in test [18] was > 100 µM (inactive) each time. The GI50 in test [19] is > 100 µM (inactive).
Consider `COc1cccc2cc(C(=O)Nc3ccccc3)c(=N)oc12`, for which the GI50 in test [1] is > 100 µM (inactive); in test [2], > 71 µM (inactive); in test [3], > 100 µM (inactive); in test [4] it was 22.2 µM (inactive); in [5], > 100 µM (inactive); in [6] it was > 100 µM (inactive). The GI50 in [7] is > 21.8 µM (inactive); in [8], > 100 µM (inactive); in [10] it was over 100 µM; in [11], > 100 µM (inactive); in test [12] it was 5.93 µM (inactive); in test [20] it was > 100 µM (inactive). The GI50 was > 58.5 µM (inactive) in test [13]; > 100 µM (inactive) in [14]; > 100 µM (inactive) in test [15]; > 100 µM (inactive) in [16]; > 100 µM (inactive) in test [17]; > 46.6 µM (inactive) in [18]. The GI50 in test [19] was > 28.2 µM (inactive).
